The target of this test is human metabotropic Glutamate 4 receptor (mGluR4) (Homo sapiens (Human), UniProt Q14833). Put plainly: Assay A: in vitro testing of mGluR4 potency (glutamate-induced cAMP lowering, HTRF cAMP). The format is cell-based. The note with it: HEK293 cells overexpressing human mGluR4; 10 uM L-glutamic acid, 1 uM forskolin; compounds of the present invention. The gist of the method: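 HEK293 cells overexpressing human mGluR4 treated 30 min at room temperature with compound plus 10 uM L-glutamate, 1 uM forskolin, 0.5 mM IBMX, 0.1% BSA, 1% DMSO. cAMP read by HTRF (665/615 nm ratio), normalized to glutamate (100%) and no-glutamate (0%) controls as percent of control.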
human metabotropic Glutamate 4 receptor (mGluR4), sequence (Q14833 33-912): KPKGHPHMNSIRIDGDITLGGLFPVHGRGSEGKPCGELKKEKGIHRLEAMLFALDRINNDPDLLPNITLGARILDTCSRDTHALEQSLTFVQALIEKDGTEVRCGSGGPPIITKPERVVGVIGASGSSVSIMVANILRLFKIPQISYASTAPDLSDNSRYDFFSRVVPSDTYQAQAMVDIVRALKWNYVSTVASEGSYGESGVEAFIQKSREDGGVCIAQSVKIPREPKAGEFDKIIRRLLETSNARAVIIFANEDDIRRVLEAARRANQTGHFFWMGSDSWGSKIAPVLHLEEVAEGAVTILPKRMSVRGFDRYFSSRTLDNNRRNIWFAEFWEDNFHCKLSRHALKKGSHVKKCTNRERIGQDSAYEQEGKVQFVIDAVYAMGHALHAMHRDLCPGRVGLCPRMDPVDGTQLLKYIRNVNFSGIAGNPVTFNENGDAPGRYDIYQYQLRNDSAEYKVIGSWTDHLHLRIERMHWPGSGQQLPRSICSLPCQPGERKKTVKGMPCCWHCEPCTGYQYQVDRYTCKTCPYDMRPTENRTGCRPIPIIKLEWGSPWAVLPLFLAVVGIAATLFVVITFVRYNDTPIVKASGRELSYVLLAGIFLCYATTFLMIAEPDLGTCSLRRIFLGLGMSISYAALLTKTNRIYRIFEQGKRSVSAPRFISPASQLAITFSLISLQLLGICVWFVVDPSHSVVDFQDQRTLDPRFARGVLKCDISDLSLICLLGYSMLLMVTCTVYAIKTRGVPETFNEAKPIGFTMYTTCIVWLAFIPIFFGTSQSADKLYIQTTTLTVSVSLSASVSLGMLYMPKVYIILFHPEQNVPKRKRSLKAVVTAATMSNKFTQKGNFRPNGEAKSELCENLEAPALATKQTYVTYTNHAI
For orientation: In TR-FRET formats the signal depends on donor and acceptor labels being close together.

As a reminder, the pIC50 is the negative decadic logarithm of the IC50, by convention in mol/L. A lower pIC50 goes with a high IC50.

pIC50: −log10 of the molar value.

`Cc1cnc(C(=O)N[C@H](c2nc3cc(C(F)(F)F)ccc3n2C)[C@H]2CCCOC2)cn1` [Example 82, 5-methyl-N-[(S)-[1-methyl-5-(trifluoromethyl)-1H-1,3-benzodiazol-2-yl][(3R)-oxan-3-yl]methyl]pyrazine-2-carboxamide] had a pIC50 of 7.89.

`CC(C)(O)[C@H](NC(=O)c1cnc(C(F)F)cn1)c1nc2cc(F)ccc2n1CC(F)F` [Example 83, N-[(1R)-1-[1-(2,2-difluoroethyl)-5-fluoro-1H-1,3-benzodiazol-2-yl]-2-hydroxy-2-methylpropyl]-5-(difluoromethyl)pyrazine-2-carboxamide] gave a pIC50 of 7.42.

Compound `Cc1cnc(C(=O)N[C@H](c2nc3cc(F)ccc3n2C(C)C)[C@H]2CCOC2)cn1` [Example 84, N-[(S)-[5-fluoro-1-(propan-2-yl)-1H-1,3-benzodiazol-2-yl][(3R)-oxolan-3-yl]methyl]-5-methylpyrazine-2-carboxamide] gave a pIC50 of 7.59.

Turning to `CO[C@H](C)[C@H](NC(=O)c1cnc(C)cn1)c1nc2cc(F)c(F)cc2n1C` [Example 85, N-[(1R,2R)-1-(5,6-difluoro-1-methyl-1H-1,3-benzodiazol-2-yl)-2-methoxypropyl]-5-methylpyrazine-2-carboxamide], the negative-log IC50 (pIC50) is 7.32.

In turn, `Cc1cnc(C(=O)N[C@@H](CC2CC2)c2nc3cc(Cl)ccc3n2C)cn1` [Example 86, N-[(1S)-1-(5-chloro-1-methyl-1H-1,3-benzodiazol-2-yl)-2-cyclopropylethyl]-5-methylpyrazine-2-carboxamide] gave a pIC50 of 8.00.

Consider `COCCn1c([C@@H](NC(=O)c2cnc(C)cn2)[C@H]2CCOC2)nc2cc(C(F)(F)F)ccc21` [Example 87, N-[(S)-[1-(2-methoxyethyl)-5-(trifluoromethyl)-1H-1,3-benzodiazol-2-yl][(3R)-oxolan-3-yl]methyl]-5-methylpyrazine-2-carboxamide], for which the pIC50 is 7.92.

`CO[C@H](C)[C@H](NC(=O)c1cnc(C)cn1)c1nc2c(C)c(Br)ccc2n1C` [Example 88, N-[(1R,2R)-1-(5-bromo-1,4-dimethyl-1H-1,3-benzodiazol-2-yl)-2-methoxypropyl]-5-methylpyrazine-2-carboxamide] gave a pIC50 of 8.52.

In the case of `COCCn1c([C@@H](NC(=O)c2cnc(C)cn2)[C@H]2CCCO2)nc2cc(OC(F)(F)F)ccc21` [Example 89, N-[(R)-[1-(2-methoxyethyl)-5-(trifluoromethoxy)-1H-1,3-benzodiazol-2-yl][(2R)-oxolan-2-yl]methyl]-5-methylpyrazine-2-carboxamide], the negative logarithm of the IC50 (pIC50) is 8.00.

`COCCn1c(C(NC(=O)c2cnc(C)cn2)C2CCCO2)nc2cc(OC(F)(F)F)ccc21` (stereo not shown) [Example 89-2] showed a pIC50 of 8.40.

Compound `COCCn1c([C@@H](NC(=O)c2cnc(C(F)F)cn2)[C@@H]2CCOC2)nc2cc(C(F)(F)F)ccc21` [Example 90, 5-(difluoromethyl)-N-[(S)-[1-(2-methoxyethyl)-5-(trifluoromethyl)-1H-1,3-benzodiazol-2-yl][(3S)-oxolan-3-yl]methyl]pyrazine-2-carboxamide] had a pIC50 of 8.22.

`COCCn1c(C(NC(=O)c2cnc(C(F)F)cn2)C2CCOC2)nc2cc(C(F)(F)F)ccc21` (stereo not shown) [Example 90-3]: the pIC50 was 7.89.

The compound `COCCn1c([C@@H](NC(=O)c2cnc(C)cn2)[C@@H]2CCOC2)nc2cc(Cl)ccc21` [Example 91, N-[(S)-[5-chloro-1-(2-methoxyethyl)-1H-1,3-benzodiazol-2-yl][(3S)-oxolan-3-yl]methyl]-5-methylpyrazine-2-carboxamide] showed a pIC50 of 7.96. This pIC50 and that of the compound before are within 0.2 log units of each other.

Regarding `Cc1cnc(C(=O)N[C@@H](CC2CC2)c2nc3cc(Cl)ccc3n2C2CC2)cn1` [Example 92, N-[(1S)-1-(5-chloro-1-cyclopropyl-1H-1,3-benzodiazol-2-yl)-2-cyclopropylethyl]-5-methylpyrazine-2-carboxamide], the pIC50 is 7.74.

`Cc1cnc(C(=O)N[C@H](c2nc3cc(C(F)(F)F)ccc3n2C)C2(O)CCC2)cn1` [Example 93, N-[(R)-(1-hydroxycyclobutyl)[1-methyl-5-(trifluoromethyl)-1H-1,3-benzodiazol-2-yl]methyl]-5-methylpyrazine-2-carboxamide]: the pIC50 was 8.05.

As for `Cn1c([C@H](CC2CC2)NC(=O)c2cnc(C(F)F)cn2)nc2cc(F)c(F)cc21` [Example 94, N-[(1S)-2-cyclopropyl-1-(5,6-difluoro-1-methyl-1H-1,3-benzodiazol-2-yl)ethyl]-5-(difluoromethyl)pyrazine-2-carboxamide], the pIC50 was 7.80.

`Cc1cnc(C(=O)N[C@@H](CC2CC2)c2nc3cc(F)ccc3n2CCOC(F)F)cn1` [Example 95, N-[(1S)-2-cyclopropyl-1-{1-[2-(difluoromethoxy)ethyl]-5-fluoro-1H-1,3-benzodiazol-2-yl}ethyl]-5-methylpyrazine-2-carboxamide] showed a negative-log IC50 (pIC50) of 7.89.

In the case of `Cc1cnc(C(=O)N[C@H](c2nc3cc(C)c(F)cc3n2C)C2CC2)cn1` [Example 96, N-[(S)-cyclopropyl (6-fluoro-1,5-dimethyl-1H-1,3-benzodiazol-2-yl)methyl]-5-methylpyrazine-2-carboxamide], the pIC50 was 7.82.

`CCn1c([C@@H](NC(=O)c2cnc(C)cn2)[C@@H]2CCOC2)nc2cc(OC(F)(F)F)ccc21` [Example 97, N-[(S)-[1-ethyl-5-(trifluoromethyoxy)-1H-1,3-benzodiazol-2-yl][(3S)-oxolan-3-yl]methyl]-5-methylpyrazine-2-carboxamide] showed a pIC50 of 7.70.

On to `CCn1c([C@@H](NC(=O)c2cnc(C)cn2)C(C)(C)O)nc2cc(OC(F)(F)F)ccc21` [Example 98, N-[(1R)-1-[1-ethyl-5-(trifluoromethoxy)-1H-1,3-benzodiazol-2-yl]-2-hydroxy-2-methylpropyl]-5-methylpyrazine-2-carboxamide], for which the negative-log IC50 (pIC50) is 8.00.

The compound `O=C(N[C@@H](CC1CC1)c1nc2cc(F)ccc2n1CCOC(F)F)c1cnc(C(F)F)cn1` [Example 99, N-[(1S)-2-cyclopropyl-1-{1-[2-(difluoromethoxy)ethyl]-5-fluoro-1H-1,3-benzodiazol-2-yl}ethyl]-5-(difluoromethyl)pyrazine-2-carboxamide] showed a pIC50 of 8.05. This pIC50 and that of the compound before are within 0.2 log units of each other.

In turn, `Cc1cnc(C(=O)N[C@H](c2nc3cc(Cl)c(F)cc3n2C)C2CC2)cn1` [Example 100, N-[(S)-(5-chloro-6-fluoro-1-methyl-1H-1,3-benzodiazol-2-yl)(cyclopropyl)methyl]-5-methylpyrazine-2-carboxamide] had a pIC50 of 7.72.

`Cc1cnc(C(=O)N[C@H](c2nc3cc(Cl)ccc3n2C2CC2)C2CC2)cn1` [Example 101, N-[(S)-(5-chloro-1-cyclopropyl-1H-1,3-benzodiazol-2-yl)(cyclopropyl)methyl]-5-methylpyrazine-2-carboxamide]: the pIC50 is 8.05.

Turning to `COCCn1c([C@@H](NC(=O)c2cnc(C(F)F)cn2)[C@H]2CCOC2)nc2cc(C(F)(F)F)ccc21` [Example 102, 5-(difluoromethyl)-N-[(S)-[1-(2-methoxyethyl)-5-(trifluoromethyl)-1H-1,3-benzodiazol-2-yl][(3R)-oxolan-3-yl]methyl]pyrazine-2-carboxamide], the pIC50 was 7.89.

Consider `COCCn1c([C@@H](NC(=O)c2cnc(C)cn2)[C@H]2CCCOC2)nc2cc(C(F)(F)F)ccc21` [Example 103, N-[(S)-[1-(2-methoxyethyl)-5-(trifluoromethyl)-1H-1,3-benzodiazol-2-yl][(3R)-oxan-3-yl]methyl]-5-methylpyrazine-2-carboxamide], for which the pIC50 is 8.10. This pIC50 is 0.21 log units higher than that of the compound before.

For `CCn1c([C@@H](NC(=O)c2cnc(C)cn2)C(C)(C)O)nc2cc(C(F)(F)F)ccc21` [Example 104, N-[(1R)-1-[1-ethyl-5-(trifluoromethyl)-1H-1,3-benzodiazol-2-yl]-2-hydroxy-2-methylpropyl]-5-methylpyrazine-2-carboxamide], the pIC50 was 7.77. Against the preceding compound, the pIC50 is 0.33 log units lower.

Take `Cc1cnc(C(=O)N[C@@H](CC2CC2)c2nc3cc(OC(F)(F)F)ccc3n2C)cn1` [Example 105, N-[(1S)-2-cyclopropyl-1-[1-methyl-5-(trifluoromethoxy)-1H-1,3-benzodiazol-2-yl]ethyl]-5-methylpyrazine-2-carboxamide]: the pIC50 was 8.10.

With `Cn1c([C@H](CC2CC2)NC(=O)c2cnc(C(F)F)cn2)nc2cc(Cl)ccc21` [Example 106, N-[(1S)-1-(5-chloro-1-methyl-1H-1,3-benzodiazol-2-yl)-2-cyclopropylethyl]-5-(difluoromethyl)pyrazine-2-carboxamide], the pIC50 is 7.96.

Consider `Cc1cnc(C(=O)N[C@H](c2nc3c(Cl)c(F)ccc3n2C)C2CC2)cn1` [Example 107, N-[(S)-(4-chloro-5-fluoro-1-methyl-1H-1,3-benzodiazol-2-yl)(cyclopropyl)methyl]-5-methylpyrazine-2-carboxamide], for which the pIC50 was 7.89.

Consider `O=C(N[C@@H](CC1CC1)c1nc2cc(Cl)ccc2n1CCOC(F)F)c1cnc(C(F)F)cn1` [Example 108, N-[(1S)-1-{5-chloro-1-[2-(difluoromethoxy)ethyl]-1H-1,3-benzodiazol-2-yl}-2-cyclopropylethyl]-5-(difluoromethyl)pyrazine-2-carboxamide], for which the pIC50 was 8.22.

Regarding `CCc1c(Br)ccc2c1nc([C@@H](NC(=O)c1cnc(C)cn1)C(C)(C)O)n2C` [Example 109, N-[(1R)-1-(5-bromo-4-ethyl-1-methyl-1H-1,3-benzodiazol-2-yl)-2-hydroxy-2-methylpropyl]-5-methylpyrazine-2-carboxamide], the pIC50 is 8.22.

As to `Cc1cnc(C(=O)N[C@H](c2nc3cc(F)c(Br)cc3n2C)C2CC2)cn1` [Example 110, N-[(S)-(6-bromo-5-fluoro-1-methyl-1H-1,3-benzodiazol-2-yl)(cyclopropyl)methyl]-5-methylpyrazine-2-carboxamide], the pIC50 was 7.85.
